Source: the supplement of paper PMC10307832

Assays:
Experiment in all cases: relative viability (nuclei count vs DMSO), 5 days (fraction); higher = more cells survive
[1] = compound: CC1=C(CC(=O)O)c2cc(F)ccc2/C1=C\c1ccc([S+](C)[O-])cc1 [Sulindac]
Procedure, shortened: (§1)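 Lung cancer cell lines in 1536-well plates were kept overnight at 37 °C, then pinned with five library-drug doses (not always all listed) spaced by √10 on vehicle-anchored plates. After 5 days without medium change, cells were fixed, permeabilised and Hoechst-stained in one step, imaged at 4×, and nuclei were counted with MetaXpress. Viability is treated-well nuclei divided by vehicle-well nuclei, taken as the median over plates. Plates passed only with control CV below 25% and at least one doubling.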

[2] = compound: O=c1[nH]cc(F)c(=O)[nH]1 [5-Fluorouracil]
Procedure, shortened: as §1

[3] = compound: CN[C@@H]1C[C@H]2O[C@@](C)([C@@H]1OC)n1c3ccccc3c3c4c(c5c6ccccc6n2c5c31)C(=O)NC4 [Staurosporine]
Procedure, shortened: as §1

[4] = compound: CC1=C(CC(=O)O)c2cc(F)ccc2/C1=C\c1ccc([S+](C)[O-])cc1 [Sulindac] + Cc1nc(NC(=O)N2CCC[C@H]2C(N)=O)sc1-c1ccnc(C(C)(C)C(F)(F)F)c1 [Alpelisib] (partner 2 µM)
Procedure, shortened: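 Values are medians from duplicate plates. Each reflects relative viability, defined as the nuclei count of treated wells over that of vehicle wells. Lung cancer cell lines in 1536-well plates were pin-tool dosed one day after seeding with one drug alone or with a fixed anchor-drug dose plus five library-drug doses (not always all listed) in √10 steps, then fixed, stained and imaged at 4× after 5 days.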

Cell Line	relative viability ([1]; 0.08 µM)	relative viability ([1]; 0.253 µM)	relative viability ([1]; 0.8 µM)	relative viability ([1]; 2.53 µM)	relative viability ([1]; 8 µM)	relative viability ([2]; 0.02 µM)	relative viability ([2]; 0.2 µM)	relative viability ([2]; 0.6325 µM)	relative viability ([2]; 2 µM)	relative viability ([3]; 0.005 µM)	relative viability ([3]; 0.01581 µM)	relative viability ([3]; 0.05 µM)	relative viability ([3]; 0.1581 µM)	relative viability ([3]; 0.5 µM)	relative viability ([4]; first compound 0.08 µM)	relative viability ([4]; first compound 0.253 µM)	relative viability ([4]; first compound 0.8 µM)	relative viability ([4]; first compound 2.53 µM)	relative viability ([4]; first compound 8 µM)
NCI-H1437	1.14	1.02	0.857	1.01	1.17	0.626	0.289	0.25	0.216	0.918	0.705	0.704	0.306	0.153	1.25	0.905	0.733	0.946	1.17
SK-MES-1	1.18	1.14	0.818	1.08	1.1	1.04	0.634	0.364	0.316	0.572	0.334	0.213	0.217	0.127	1.06	1.05	0.601	0.815	0.982
NCI-H3122	1.04	1.03	0.949	0.962	1.08	1	0.848	0.39	0.241	1.04		0.893	0.255	0.357	0.639	0.722	0.699	0.756	0.941
NCI-H2085	0.919	1	0.891	0.971	1.04	0.931	1.02	0.989	0.813	0.833	0.586	0.624	0.361	0.285	1.02	0.963	0.935	1.02	0.922
PC-3 [JPC-3]	1.16	1.03	0.926	1.02	1.12	0.967	1.1	0.954	0.743	1.02	0.36	0.698	0.384	0.317	1.18	1.03	0.95	1.08	1.04
NCI-H1299	1.13	1.09	0.908	1.05	1.08	1.1	1.05	0.955	0.703	0.815	0.491	0.284	0.207	0.137	1.23	1.19	0.624	1.2	1.08
NCI-H1563	0.898	0.973	0.936	0.967	1.14	0.952	1.01	1	0.815	0.724	0.592	0.542	0.547		0.915	0.853	0.86	0.884	0.923
NCI-H838	1.05	1.04	0.879	0.94	1.07	0.879	1.03	0.597	0.387	0.447	0.315	0.221	0.189	0.126	1.22	0.983	0.769	0.975	1.08
